Assay results as given in ChEMBL document CHEMBL6182912, “Development of Novel Phthalazinone-Triazole Hybrids as Potential Antidiabetic Agents Targeting GLUT4 Translocation in Skeletal Muscle” (J Med Chem, 2025).
Active and inactive are the calls of the source. The calls are words filed in the database; no cut-off is given here.

What was measured:
[1] = target: T1, Solute carrier family 2, facilitated glucose transporter member 4 (Rattus norvegicus) (UniProt P19357); assay: Modulation of insulin-stimulated GLUT4 translocation in rat L6-GLUT4myc skeletal muscle cells assessed as increase in AKT phosphorylation Ser473 at 10 uM pretreated with compound and wortmannin for 16 hrs followed by insulin addition measured after 10 mins by Western blot analysis; assay type: cell-based; settings: time 970.0 min
T1 sequence (whole entry): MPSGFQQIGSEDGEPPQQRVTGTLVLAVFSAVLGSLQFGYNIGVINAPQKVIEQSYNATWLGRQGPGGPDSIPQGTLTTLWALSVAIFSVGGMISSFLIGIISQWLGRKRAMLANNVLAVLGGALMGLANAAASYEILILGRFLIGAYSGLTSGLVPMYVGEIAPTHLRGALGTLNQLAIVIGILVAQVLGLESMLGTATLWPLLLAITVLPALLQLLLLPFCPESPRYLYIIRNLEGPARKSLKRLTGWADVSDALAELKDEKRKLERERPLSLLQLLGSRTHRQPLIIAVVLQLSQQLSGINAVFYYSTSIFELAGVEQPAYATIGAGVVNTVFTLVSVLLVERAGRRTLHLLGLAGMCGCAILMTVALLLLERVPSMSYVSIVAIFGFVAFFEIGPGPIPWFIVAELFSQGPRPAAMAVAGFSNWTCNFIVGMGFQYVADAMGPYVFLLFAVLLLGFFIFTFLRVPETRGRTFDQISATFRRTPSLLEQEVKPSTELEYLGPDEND

[2] = target: T1, Solute carrier family 2, facilitated glucose transporter member 4 (Rattus norvegicus); assay: (§1) Modulation of insulin-stimulated GLUT4 translocation in rat L6-GLUT4myc skeletal muscle cells assessed as increase in surface GLUT4myc level at 10 uM pretreated with compound overnight and cultured final 3 hrs of compound treatment in serum-starved medium followed by insulin addition measured after 20 mins by O-phenylenediamine assay; assay type: cell-based; settings: filed as modulator
Rattus norvegicus [3] = assay: Anti-hyperglycemic effect in STZ-induced diabetic male Sprague-Dawley rat assessed as reduction in blood glucose level at 100 mg/kg, po; assay type: functional, organism-based; settings: time 30-300 min
[4] = target: T1, Solute carrier family 2, facilitated glucose transporter member 4 (Rattus norvegicus); assay: Modulation of GLUT4 translocation in rat L6-GLUT4myc skeletal muscle cells assessed as increase in AMPK-alpha phosphorylation at Thr172 at 10 uM incubated for 16 hrs by Western blot analysis; assay type: cell-based; settings: filed as modulator
L6-GLUT4myc [5] = assay: Effect on IRS1 mRNA level in rat L6-GLUT4myc at 10 uM incubated for 16 hrs by RT-PCR analysis; assay type: functional, cell-based
[6] = target: T1, Solute carrier family 2, facilitated glucose transporter member 4 (Rattus norvegicus); assay: Modulation of GLUT4 translocation in rat L6-GLUT4myc skeletal muscle cells assessed as increase in surface GLUT4myc level measured after 16 hrs by O-phenylenediamine assay; assay type: cell-based; settings: filed as modulator, dose 5-25 µM
[7] = Stability in SGF at pH 1.2 assessed as compound remaining measured after 120 mins by UPLC analysis; assay type: physicochemical; settings: read-out: Stability
[8] = target: T1, Solute carrier family 2, facilitated glucose transporter member 4 (Rattus norvegicus); assay: Modulation of GLUT4 translocation in rat L6-GLUT4myc skeletal muscle cells assessed as increase in GLUT4 mRNA level at 10 uM incubated for 16 hrs by RT-PCR analysis; assay type: cell-based; settings: filed as modulator
[9] = Stability in SPF at pH 7.4 assessed as compound remaining measured after 120 mins by UPLC analysis; assay type: physicochemical; settings: read-out: Stability
[10] = target: T1, Solute carrier family 2, facilitated glucose transporter member 4 (Rattus norvegicus); assay: Modulation of insulin-stimulated GLUT4 translocation in rat L6-GLUT4myc skeletal muscle cells assessed as increase in AKT phosphorylation Ser473 at 10 uM pretreated with compound for 16 hrs followed by insulin addition measured after 10 mins by Western blot analysis; assay type: cell-based; settings: filed as modulator, time 970.0 min
L6-GLUT4myc [11] = assay: Effect on AKT2 mRNA level in rat L6-GLUT4myc at 10 uM incubated for 16 hrs by RT-PCR analysis; assay type: functional, cell-based
[12] = target: T1, Solute carrier family 2, facilitated glucose transporter member 4 (Rattus norvegicus); assay: as §1, with “and wortmannin for 16 hrs” for “overnight”; assay type: cell-based; settings: time 980.0 min
[13] = Stability in SIF at pH 6.8 assessed as compound remaining measured after 120 mins by UPLC analysis; assay type: physicochemical; settings: read-out: Stability
Rattus norvegicus [14] = assay: Anti-hyperglycemic effect in STZ-induced diabetic male Sprague-Dawley rat assessed as reduction in blood glucose level at 100 mg/kg, po measured after 5 hrs relative to control; assay type: functional; design: scale not given: the % may be the effect or the level left
[15] = target: T1, Solute carrier family 2, facilitated glucose transporter member 4 (Rattus norvegicus); assay: Modulation of GLUT4 translocation in rat L6-GLUT4myc skeletal muscle cells assessed as increase in surface GLUT4myc level by measuring fold stimulation at 10 uM measured after 16 hrs by O-phenylenediamine assay relative to control; assay type: cell-based; settings: filed as modulator
[16] = Stability in rat plasma assessed as compound remaining measured after 120 mins by UPLC analysis; assay type: ADME, cell-free; settings: read-out: Stability
[17] = target: T1, Solute carrier family 2, facilitated glucose transporter member 4 (Rattus norvegicus); assay: Modulation of GLUT4 translocation in rat L6-GLUT4myc skeletal muscle cells assessed as increase in surface GLUT4myc level by measuring fold stimulation at 1 mM measured after 1 hr by O-phenylenediamine assay relative to control; assay type: cell-based; settings: filed as modulator
Rattus norvegicus [18] = assay: Anti-hyperglycemic effect in STZ-induced diabetic male Sprague-Dawley rat assessed as reduction in blood glucose level at 300 mg/kg, po measured after 5 hrs relative to control; assay type: functional; design: scale not given: the % may be the effect or the level left
[19] = target: T1, Solute carrier family 2, facilitated glucose transporter member 4 (Rattus norvegicus); assay: Modulation of GLUT4 translocation in rat L6-GLUT4myc skeletal muscle cells assessed as increase in surface GLUT4myc level by measuring fold stimulation at 500 uM measured after 16 hrs by O-phenylenediamine assay relative to control; assay type: cell-based; settings: filed as modulator
[20] = target: T1, Solute carrier family 2, facilitated glucose transporter member 4 (Rattus norvegicus); assay: as §1, with “50 nM” for “10 uM”, “for 16 hrs” for “overnight”; assay type: cell-based; settings: time 980.0 min
[21] = target: T1, Solute carrier family 2, facilitated glucose transporter member 4 (Rattus norvegicus); assay: Modulation of insulin-stimulated GLUT4 translocation in rat L6-GLUT4myc skeletal muscle cells assessed as increase in AKT phosphorylation Ser473 pretreated with compound for 16 hrs followed by insulin addition measured after 10 mins by Western blot analysis; assay type: cell-based; settings: time 970.0 min

SMILES	fold change (FC) [15]	other results
O=C(NCc1cn(-c2ccccc2)nn1)c1cc(Cc2n[nH]c(=O)c3ccccc23)ccc1F	1.93	Activity [1]: inactive; Activity [2]: Active; Activity (Rattus norvegicus [3]): Time-dependent-effect; Activity [4]: Active; Activity (L6-GLUT4myc [5]): No effect; Activity [6]: Dose-dependent-effect; remaining at 2 h [7]: ≤ 60%; Activity [8]: Active; remaining at 2 h [9]: ≤ 60%; Activity [10]: Active; Activity (L6-GLUT4myc [11]): No effect; Activity [12]: inactive; remaining at 2 h [13]: ≤ 60%; Activity (Rattus norvegicus [14]): ~38.7%; remaining at 2 h [16]: ≤ 60%
O=C(NCc1cn(-c2cccc3ccccc23)nn1)c1cc(Cc2n[nH]c(=O)c3ccccc23)ccc1F	1.15	
O=C(NCc1cn(-c2ccc(F)cc2F)nn1)c1cc(Cc2n[nH]c(=O)c3ccccc23)ccc1F	1.75	
NC(=O)c1ncn([C@@H]2O[C@H](CO)[C@@H](O)[C@H]2O)c1N		fold change (FC) [17]: 1.56
Cc1ccc(-n2cc(CNC(=O)c3cc(Cc4n[nH]c(=O)c5ccccc45)ccc3F)nn2)cc1	1.92	Activity [6]: Dose-dependent-effect
Cc1ccc(-n2cc(COC(=O)c3ccc(Cc4n[nH]c(=O)c5ccccc45)cc3)nn2)cc1	0.9	
O=C(NCc1cn(-c2ccc(Cl)cc2)nn1)c1ccc(Cc2n[nH]c(=O)c3ccccc23)cc1	1.09	
COc1cccc(OC)c1-n1cc(CNC(=O)c2cc(Cc3n[nH]c(=O)c4ccccc34)ccc2F)nn1	1.31	
O=C(NCc1cn(-c2cccc(F)c2)nn1)c1cc(Cc2n[nH]c(=O)c3ccccc23)ccc1F	0.84	
O=C(NCc1cn(-c2ccc(Cl)cc2)nn1)c1cc(Cc2n[nH]c(=O)c3ccccc23)ccc1F	1.53	
C#CCNC(=O)c1ccc(Cc2n[nH]c(=O)c3ccccc23)cc1	1.17	
O=C(NCc1cn(-c2ccccc2)nn1)c1ccc(Cc2n[nH]c(=O)c3ccccc23)cc1F	1.36	
O=C(NCc1cn(-c2ccc(F)cc2)nn1)c1ccc(Cc2n[nH]c(=O)c3ccccc23)cc1	1.11	
O=C(NCc1cn(-c2ccc(Br)cc2)nn1)c1cc(Cc2n[nH]c(=O)c3ccccc23)ccc1F	1.87	
O=C(OCc1cn(-c2ccc(Br)cc2)nn1)c1cc(Cc2n[nH]c(=O)c3ccccc23)ccc1F	1.39	
Cc1ccc(-n2cc(CNC(=O)c3ccc(Cc4n[nH]c(=O)c5ccccc45)cc3)nn2)cc1	0.77	
O=C(NCc1cn(-c2ccc(OC(F)(F)F)cc2)nn1)c1cc(Cc2n[nH]c(=O)c3ccccc23)ccc1F	1.59	
O=C(OCc1cn(-c2ccc(F)cc2)nn1)c1ccc(Cc2n[nH]c(=O)c3ccccc23)cc1	0.99	
O=C(NCc1cn(-c2ccc(F)cc2)nn1)c1cc(Cc2n[nH]c(=O)c3ccccc23)ccc1F	1.98	
Cc1ccc(-n2cc(COC(=O)c3cc(Cc4n[nH]c(=O)c5ccccc45)ccc3F)nn2)cc1	0.98	
COc1ccc(-n2cc(COC(=O)c3cc(Cc4n[nH]c(=O)c5ccccc45)ccc3F)nn2)cc1	1.31	

SMILES	fold change (FC) [15]	other results
COc1ccccc1-n1cc(CNC(=O)c2cc(Cc3n[nH]c(=O)c4ccccc34)ccc2F)nn1	1.01	
O=C(NCc1cn(-c2ccc(OC(F)(F)F)cc2)nn1)c1ccc(Cc2n[nH]c(=O)c3ccccc23)cc1	1.04	
O=C(NCc1cn(-c2ccc(Br)cc2)nn1)c1ccc(Cc2n[nH]c(=O)c3ccccc23)cc1	0.89	
O=C(NCc1cn(-c2ccccc2F)nn1)c1cc(Cc2n[nH]c(=O)c3ccccc23)ccc1F	0.86	
O=C(NCc1cn(-c2ccc(Cl)c(Cl)c2)nn1)c1cc(Cc2n[nH]c(=O)c3ccccc23)ccc1F	1.49	
O=C(OCc1cn(-c2ccc(Br)cc2)nn1)c1ccc(Cc2n[nH]c(=O)c3ccccc23)cc1	1.54	
COc1cccc(Cl)c1-n1cc(CNC(=O)c2cc(Cc3n[nH]c(=O)c4ccccc34)ccc2F)nn1	1.14	
COc1cc(-n2cc(CNC(=O)c3cc(Cc4n[nH]c(=O)c5ccccc45)ccc3F)nn2)cc(OC)c1OC	1.08	
COc1ccc(OC)c(-n2cc(CNC(=O)c3cc(Cc4n[nH]c(=O)c5ccccc45)ccc3F)nn2)c1	1.29	
O=C(OCc1cn(-c2ccc(F)cc2)nn1)c1cc(Cc2n[nH]c(=O)c3ccccc23)ccc1F	1.03	
CC(C)c1ccc(-n2cc(CNC(=O)c3cc(Cc4n[nH]c(=O)c5ccccc45)ccc3F)nn2)cc1	1.1	
CN(C)C(=N)NC(=N)N [METFORMIN]		Activity (Rattus norvegicus [18]): 64.7%; fold change (FC) [19]: 1.65
O=C(OCc1cn(-c2ccccc2)nn1)c1ccc(Cc2n[nH]c(=O)c3ccccc23)cc1	0.94	
COc1ccc(-n2cc(CNC(=O)c3cc(Cc4n[nH]c(=O)c5ccccc45)ccc3F)nn2)cc1	1.92	Activity [6]: Dose-dependent-effect
O=C(NCc1cn(-c2ccccc2)nn1)c1ccc(Cc2n[nH]c(=O)c3ccccc23)cc1	1.48	
COc1cccc(-n2cc(CNC(=O)c3cc(Cc4n[nH]c(=O)c5ccccc45)ccc3F)nn2)c1	1.4	
O=C(NCc1cn(-c2ccc(C(F)(F)F)cc2)nn1)c1cc(Cc2n[nH]c(=O)c3ccccc23)ccc1F	1.77	
O=C(OCc1cn(-c2ccccc2)nn1)c1cc(Cc2n[nH]c(=O)c3ccccc23)ccc1F		fold change (FC) [19]: 0.97
COC[C@H]1OC(=O)c2coc3c2[C@@]1(C)C1=C(C3=O)[C@@H]2CCC(=O)[C@@]2(C)C[C@H]1OC(C)=O		Activity [20]: inactive; Activity [21]: inactive
CC(C)c1ccc(-n2cc(COC(=O)c3cc(Cc4n[nH]c(=O)c5ccccc45)ccc3F)nn2)cc1	1.52	
COc1ccc(-n2cc(CNC(=O)c3ccc(Cc4n[nH]c(=O)c5ccccc45)cc3)nn2)cc1	1.12	
